SMILES strings stand for the structures. pIC50: −log10 of the molar value.

The source of these data is patent US9840482B2, “Sulfonamide derivatives and pharmaceutical applications thereof” (Sunshine Lake Pharma Co., Ltd., priority 2014, dated 2017).

T1 sequence (P50406 whole entry): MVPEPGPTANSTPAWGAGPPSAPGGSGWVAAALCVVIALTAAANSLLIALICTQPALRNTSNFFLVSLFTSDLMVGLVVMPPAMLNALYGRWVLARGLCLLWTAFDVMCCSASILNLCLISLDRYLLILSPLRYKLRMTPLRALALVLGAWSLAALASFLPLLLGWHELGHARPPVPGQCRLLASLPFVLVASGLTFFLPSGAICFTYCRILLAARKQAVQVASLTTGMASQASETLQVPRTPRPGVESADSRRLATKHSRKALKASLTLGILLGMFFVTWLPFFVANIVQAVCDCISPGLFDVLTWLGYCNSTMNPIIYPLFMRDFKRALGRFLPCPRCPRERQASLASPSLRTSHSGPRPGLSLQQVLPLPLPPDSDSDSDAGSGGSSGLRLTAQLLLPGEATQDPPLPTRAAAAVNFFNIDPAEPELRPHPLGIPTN

The first data set addresses T1, human 5-HT6 receptor (Homo sapiens, UniProt P50406).
T1 construct: expressed in transfected cells; host or cells: CHO cells (membrane preparation)
The data set is described as follows: Radioligand binding assay ([3H]LSD) on membranes of CHO cells expressing human 5-HT6 receptor. The settings on record: human 5-HT6 receptor expressed in CHO cell, 2 nM [3H]LSD, 37° C., 120 min. On the procedure: The binding affinities of the compounds of this invention to human 5-HT6 receptor expressed in CHO cell were evaluated by radioligand binding assay in this example. Briefly, for each compound of the present invention, the binding affinity thereof was tested through the following steps:
32 μg membrane proteins of CHO cell expressing human 5-HT6 receptor, 2 nM of radioactive marker [3H]LSD, a compound of the present invention having different test concentrations, 100 μM 5-HT (5-HT was used to eliminate nonspecific binding sites) and a buffer solution were mixed uniformly. Then the resulting mixture was incubated at 37° C. for 120 min, in which the buffer solution was comprised of 50 mM Tris-HC1 (pH 7.4), 10 mM MgCl2, 0.5 mM EDTA, 10 μM pargyline and 20 mg/L protease inhibitor.
After incubation, the resluting mixture was filtered by a fiberglass filter in vacuo (GF/B, Packard), and the filter membrane of the fiberglass filter was preimpregnated with 0.3% PEI before the filtering and washed with 50 mM of Tris-HC1 for several times after the filtering. After the filter membrane was dried, and the radioactivity of filter membrane was determined by liquid scintillation counting by using a scintillometer (Topcount, Packard). The reference standard was 5-HT, and IC50 values were calculated by competitive inhibition curves plotted based on several inhibition ratios and the corresponding compound concentrations.
What is called pIC50 is the IC50 on a negative log10 scale, so that one unit is a factor of ten. A lower pIC50 goes with a high IC50. In turn, `COc1ccc(S(=O)(=O)NCCc2cccc3ccccc23)cc1N1CCNCC1` [Example 1] gave a pIC50 of 8.57.
The same measure, in the same setting: the value for `COc1ccc(S(=O)(=O)NCCc2cccc3ccccc23)cc1N1CCN(C)CC1` [Example 2] was 9.04; that for `COc1ccc(S(=O)(=O)NCCc2cccc3c(OC)cccc23)cc1N1CCNCC1` [Example 3, 4-Methoxy-N-(2-(5-methoxynaphthalen-1-yl)ethyl)-3-(piperazin-1-yl) benzenesulfonamide] was 7.51.
On the same count and under the same terms, to `COc1ccc(S(=O)(=O)NCCc2cccc3c(OC)cccc23)cc1N1CCN(C)CC1` [Example 4, 4-Methoxy-N-(2-(5-methoxynaphthalen-1-yl)ethyl)-3-(4-methylpiperazin-1-yl) benzenesulfonamide] belongs 7.96; to `COc1ccc(S(=O)(=O)NCCc2cccc3cc(F)ccc23)cc1N1CCNCC1` [Example 5], 8.39.
On the same count and under the same terms, to `COc1ccc(S(=O)(=O)NCCc2cccc3cc(F)ccc23)cc1N1CCN(C)CC1` [Example 6] belongs 8.89; to `COc1ccc2cccc(CCNS(=O)(=O)c3ccc(OC)c(N4CCNCC4)c3)c2c1` [Example 7, 4-Methoxy-N-(2-(7-methoxynaphthalen-1-yl)ethyl)-3-(piperazin-1-yl) benzenesulfonamide], 9.00; to `COc1ccc2cccc(CCNS(=O)(=O)c3ccc(OC)c(N4CCN(C)CC4)c3)c2c1` [Example 8], 9.30.
For the compound `COc1ccc(S(=O)(=O)NCCc2cccc3ccc(F)cc23)cc1N1CCNCC1` [Example 9], the negative-log IC50 (pIC50) was 9.16.
The same measure, in the same setting: the value for `COc1ccc(S(=O)(=O)NCCc2cccc3ccc(F)cc23)cc1N1CCN(C)CC1` [Example 10] was 9.55; that for `COc1ccc(S(=O)(=O)NCCc2cccc3ccc(Br)cc23)cc1N1CCNCC1` [Example 11, N-(2-(7-Bromonaphthalen-1-yl)ethyl)-4-methoxy-3-(piperazin-1-yl) benzenesulfonamide] was 8.68; that for `COc1ccc(S(=O)(=O)NCCc2cccc3ccc(Br)cc23)cc1N1CCN(C)CC1` [Example 12, N-(2-(7-Bromonaphthalen-1-yl)ethyl)-4-methoxy-3-(4-methylpiperazin-1-yl) benzene sulfonamide] was 9.77.
On the same count and under the same terms, to `COc1ccc(S(=O)(=O)NCC(C)(C)c2cccc3ccccc23)cc1N1CCNCC1` [Example 13, 4-Methoxy-N-(2-methyl-2-(naphthalen-1-yl)propyl)-3-(piperazin-1-yl) benzenesulfonamide] belongs 8.89; to `COc1ccc(S(=O)(=O)NCC(C)(C)c2cccc3cc(F)ccc23)cc1N1CCNCC1` [Example 15, N-(2-(6-fluoronaphthalen-1-yl)-2-methylpropyl)-4-methoxy-3-(piperazin-1-yl)benzene sulfonamide], 7.96.
Still for that read-out and setting: the value for `COc1ccc2cccc(C(C)(C)CNS(=O)(=O)c3ccc(OC)c(N4CCNCC4)c3)c2c1` [Example 17, 4-Methoxy-N-(2-(7-methoxynaphthalen-1-yl)-2-methylpropyl)-3-(piperazin-1-yl)benzene sulfonamide] was 8.96; that for `COc1ccc2cccc(C(C)(C)CNS(=O)(=O)c3ccc(OC)c(N4CCN(C)CC4)c3)c2c1` [Example 18, 4-Methoxy-N-(2-(7-methoxynaphthalen-1-yl)-2-methylpropyl)-3-(4-methylpiperazin-1-yl) benzenesulfonamide] was 8.85.
`COc1ccc(S(=O)(=O)NCC(C)(C)c2cccc3ccc(Br)cc23)cc1N1CCNCC1` [Example 21, N-(2-(7-Bromonaphthalen-1-yl)-2-methylpropyl)-4-methoxy-3-(piperazin-1-yl) benzenesulfonamide] had a negative-log IC50 (pIC50) of 8.77. The pIC50 values of the last two compounds are within 0.2 log units of each other.
Same read-out and setting: the value for `COc1ccc(S(=O)(=O)NCC(C)(C)c2cccc3ccc(Br)cc23)cc1N1CCN(C)CC1` [Example 22, N-(2-(7-Bromonaphthalen-1-yl)-2-methylpropyl)-4-methoxy-3-(4-methylpiperazin-1-yl) benzenesulfonamide] was 9.51.
`COc1ccc(S(=O)(=O)NCC2(c3cccc4ccccc34)CC2)cc1N1CCNCC1` [Example 23, 4-Methoxy-N-((1-(naphthalen-1-yl)cyclopropyl)methyl)-3-(piperazin-1-yl) benzenesulfonamide]: the pIC50 is 8.43.
Still for that read-out and setting: the value for `COc1ccc(S(=O)(=O)NCC2(c3cccc4ccccc34)CC2)cc1N1CCN(C)CC1` [Example 24, 4-Methoxy-3-(4-methylpiperazin-1-yl)-N-((1-(naphthalen-1-yl)cyclopropyl)methyl) benzenesulfonamide] was 8.70; that for `COc1ccc(S(=O)(=O)NCC2(c3cccc4cc(F)ccc34)CC2)cc1N1CCNCC1` [Example 25, N-((1-(6-fFluoronaphthalen-1-yl)cyclopropyl)methyl)-4-methoxy-3-(piperazin-1-yl) benzenesulfonamide] was 7.80; that for `COc1ccc(S(=O)(=O)NCC2(c3cccc4cc(F)ccc34)CC2)cc1N1CCN(C)CC1` [Example 26, N-((1-(6-Fluoronaphthalen-1-yl)cyclopropyl)methyl)-4-methoxy-3-(4-methylpiperazin-1-yl) benzenesulfonamide] was 8.49.
On the same count and under the same terms, to `COc1ccc2cccc(C3(CNS(=O)(=O)c4ccc(OC)c(N5CCNCC5)c4)CC3)c2c1` [Example 27, 4-Methoxy-N-((1-(7-methoxynaphthalen-1-v1)cyclopropyl)methyl)-3-(piperazin-1-yl) benzenesulfonamide] belongs 8.30; to `COc1ccc2cccc(C3(CNS(=O)(=O)c4ccc(OC)c(N5CCN(C)CC5)c4)CC3)c2c1` [Example 28, 4-Methoxy-N-((1-(7-methoxynaphthalen-1-yl)cyclopropyl)methyl)-3-(4-methylpiperazin-1-yl) benzenesulfonamide], 8.68.
The same measure, in the same setting: the value for `COc1ccc(S(=O)(=O)NCC2(c3cccc4ccc(F)cc34)CC2)cc1N1CCNCC1` [Example 29] was 8.64.
Regarding `COc1ccc(S(=O)(=O)NCC2(c3cccc4ccc(Br)cc34)CC2)cc1N1CCNCC1` [Example 31], the negative logarithm of the IC50 (pIC50) was 8.92. This pIC50 lies 0.28 log units higher than the previous one.
Same read-out and setting: the value for `COc1ccc(S(=O)(=O)NCCc2ccc(OC)c3ccccc23)cc1N1CCNCC1` [Example 33, 4-Methoxy-N-(2-(4-methoxynaphthalen-1-yl)ethyl)-3-(piperazin-1-yl) benzenesulfonamide] was 8.26; that for `COc1ccc(S(=O)(=O)NCCc2ccc(OC)c3ccccc23)cc1N1CCN(C)CC1` [Example 34] was 8.59; that for `COc1ccc(S(=O)(=O)NCCc2ccc(F)c3ccccc23)cc1N1CCNCC1` [Example 35] was 8.80.
On the same count and under the same terms, to `COc1ccc(S(=O)(=O)NCCc2ccc(F)c3ccccc23)cc1N1CCN(C)CC1` [Example 36] belongs 9.34.

System in the next data set: not listed separately
Briefly: Pharmacokinetic evaluation after intravenous or gavage administration to dogs. Type of data set: in vivo, Beagle dogs. The settings on record: by gavage, 5 mg/kg. On the procedure: The LC/MS/MS system for the analysis comprised an Agilent 1200 Series Vacuum Degasser, binary syringe pumps, a well-plate autosampler, a column oven and an Agilent G6430A Triple Quadrupole Mass Spectrometer equiped with an electrospray ionization (ESI) source, Quantitative analysis was performed in the MRM mode and the conversion parameters of MRM were listed in Table 3:
Analysis was performed on waters)(Bridge C18 (2.1×50 mm, […] column, and 5 μL of sample was injected). Conditions of the analysis comprised: a mobile phase consisted of mobile phase A (water, 2 mM ammonium formate and 0.1% formic acid) and mobile phase B (methanol, 2 mM ammonium formate and 0.1% formic acid), the flow rate was 0.4 mL/min, and the conditions of gradient elution were listed in Table 4: […]
In vivo pharmacokinetic assays in dogs of the compounds disclosed herein were performed by the following steps.
Experiments were divided into two groups, one group was performed through intravenous drug delivery, and the other group was performed by gavage. The compounds disclosed herein were administered in form of a saline solution containing 5% DMSO, 5% Kolliphor HS 15, 2% (2% HC1) and 88% Saline, or the solution containing 10% DMSO, 10% Kolliphor HS 15 and 80% physiological saline. […]
Turning to `COc1ccc(S(=O)(=O)NCC(C)(C)c2cccc3ccccc23)cc1N1CCNCC1` [Example 13, 4-Methoxy-N-(2-methyl-2-(naphthalen-1-yl)propyl)-3-(piperazin-1-yl) benzenesulfonamide], the “area under the plasma concentration vs time curve (AUClast)” value is given as “more than 15000 h*ng/mL”.
